Data reported in patent US5191079A, “Quinolinecarboxylic acid derivatives” (priority 1990, dated 1993).
Values after ≈ are worked out from the molar mass of the structure shown.

Tests used:
[1] = system: Staphylococcus aureus FDA 243; assay: MIC, Experiment 1; assay type: cell-based; settings: FDA243, S. aureus FDA 243, Gram +, read-out: Min. inhib. concentr. (MIC)
Method: (§1) The compounds of the present invention (B, E, G, H, M, N, O, P and Q) were each dissolved in dimethylsulfoxide to prepare a solution of 5000 μg/ml in concentration. The compounds of the present invention (I, J and K) and the known compound (Y) were each dissolved in sterilized distilled water to prepare a solution of 5000 μg/ml in concentration. Each solution was diluted with sterilized distilled water to prepare a standard solution with a concentration of each test compound: 1000 μg/ml. The test was carried out by a method as appointed by Japan Society of Chemotherapy [cf. Chemotherapy, 29, 76-79 (1981), TOKYO].
(§2) As to Streptococcus pneumoniae and Streptococcus pyogenes, Brain heart infusion broth (manufactured by DIFCO) was used as the medium for the preculture thereof, and a heart infusion agar medium containing 5% defibrinated horse blood (manufactured by Nissui Seiyaku K. K., Japan) was used as the medium for the measurement of minimum inhibitory concentration (MIC). As to other microorganisms, a sensitivity test broth (manufactured by Nissui Seiyaku K. K.) was used as the medium for the preculture thereof, and a sensitivity test agar medium (manufactured by Nissui Seiyaku K. K.) was used as the medium for the measurement of MIC.

[2] = system: Klebsiella pneumoniae PCI-602; assay: MIC, Experiment 1; assay type: cell-based; settings: PCI602, K. pneumoniae PCI-602, Gram -, read-out: Min. inhib. concentr. (MIC)
Method: as §1, §2

[3] = system: Escherichia coli NIHJ JC-2; assay: MIC, Experiment 1; assay type: cell-based; settings: NIHJJC2, E. coli NIHJ JC-2, Gram -, read-out: Min. inhib. concentr. (MIC)
Method: as §1, §2

[4] = system: Bacillus cereus IAM 1029; assay: MIC, Experiment 1; assay type: cell-based; settings: IAM1029, B. cereus IAM 1029, Gram +, read-out: Min. inhib. concentr. (MIC)
Method: as §1, §2

[5] = system: Staphylococcus aureus ATCC 9144; assay: MIC, Experiment 1; assay type: cell-based; settings: ATCC9144, S. aureus ATCC 9144, Gram +, read-out: Min. inhib. concentr. (MIC)
Method: as §1, §2

[6] = system: Staphylococcus aureus IID 803; assay: MIC, Experiment 1; assay type: cell-based; settings: IID803, S. aureus IID 803, Gram +, read-out: Min. inhib. concentr. (MIC)
Method: as §1, §2

[7] = system: Staphylococcus aureus FDA 209P JC-1; assay: MIC, Experiment 1; assay type: cell-based; settings: FDA209P, S. aureus FDA 209P JC-1, Gram +, read-out: Min. inhib. concentr. (MIC)
Method: as §1, §2

[8] = system: Proteus mirabilis IFO 3849; assay: MIC, Experiment 1; assay type: cell-based; settings: IFO3849, P. mirabilis IFO 3849, Gram -, read-out: Min. inhib. concentr. (MIC)
Method: as §1, §2

[9] = system: Staphylococcus aureus Cowan I (IID 975); assay: MIC, Experiment 1; assay type: cell-based; settings: IID975, S. aureus Cowan I (IID 975), Gram +, read-out: Min. inhib. concentr. (MIC)
Method: as §1, §2

[10] = system: Pseudomonas aeruginosa NCTC 10490; assay: MIC, Experiment 1; assay type: cell-based; settings: NCTC10490, P. aeruginosa NCTC 10490, Gram -, read-out: Min. inhib. concentr. (MIC)
Method: as §1, §2

[11] = system: Micrococcus luteus ATCC 9341; assay: MIC, Experiment 1; assay type: cell-based; settings: ATCC9341, M. luteus ATCC 9341, Gram +, read-out: Min. inhib. concentr. (MIC)
Method: as §1, §2

[12] = system: Acinetobacter calcoaceticus Ac 54; assay: MIC, Experiment 1; assay type: cell-based; settings: AC54, A. calcoaceticus Ac 54, Gram -, read-out: Min. inhib. concentr. (MIC)
Method: as §1, §2

[13] = system: Staphylococcus aureus Terajima (IID 670); assay: MIC, Experiment 1; assay type: cell-based; settings: IID670, S. aureus Terajima (IID 670), Gram +, read-out: Min. inhib. concentr. (MIC)
Method: as §1, §2

[14] = system: Enterobacter cloacae 963; assay: MIC, Experiment 1; assay type: cell-based; settings: E. cloacae 963, Gram -, read-out: Min. inhib. concentr. (MIC)
Method: as §1, §2

[15] = system: Bacillus subtilis ATCC 6633; assay: MIC, Experiment 1; assay type: cell-based; settings: ATCC6633, B. subtilis ATCC 6633, Gram +, read-out: Min. inhib. concentr. (MIC)
Method: as §1, §2

[16] = system: clinically isolated Enterococcus faecalis; assay: In vitro antibacterial activity against clinical isolates, Experiment 2; assay type: cell-based
Method: (§3) The above solutions were then diluted with sterilized distilled water to prepare a standard solution with a concentration of the test compound: 1000 μg/ml each.
(§4) For the preculture of each microorganism, there was used as the medium a sensitivity test broth (manufactured by Nissui Seiyaku K. K., Japan), and for the measurement of MIC, there was used a sensitivity test agar medium (manufactured by Nissui Seiyaku K. K.).
(§5) The clinically isolates used above were isolated from Nov. 1988 to Jun. 1989 and were obtained from Research Section, Tokyo Clinical Research Center.

[17] = system: clinically isolated Enterococcus faecium; assay: as above; assay type: cell-based
Method: as §3, §4, §5

[18] = system: clinically isolated Staphylococcus aureus; assay: as above; assay type: cell-based
Method: as §3, §4, §5

[19] = system: clinically isolated Staphylococcus epidermidis; assay: as above; assay type: cell-based; settings: Staphylococcus epidermidis
Method: as §3, §4, §5

[20] = system: Staphylococcus aureus IID 803; assay: Effect on treatment of general infectious disease (systemic infection in mice), Experiment 3; assay type: in vivo, Staphylococcus aureus; ddY male mice; settings: Staphylococcus aureus, IID803, 168 h; oral, 1 h after i.p. infection, mice, survival after one week, average of several tests; read-out: 50% effective dose (ED50)
Method: Staphylococcus aureus IID 803
The test microorganism was subjected to standing culture in Brain heart infusion broth (manufactured by DIFCO) at 37° C. for 16 to 18 hours. The culture was then diluted with PBS (Dulbecco's phosphate buffered saline) to adjust the concentration of bacteria to 4×10^7 -8×10^7 CFU/ml. The mixture was mixed with an equivalent amount of 10% (w/v) Mucin (BACTO MUCIN BACTERIOLOGICAL, manufactured by Difco Co.) to prepare a bacterial suspension. The thus prepared bacterial suspension (0.5 ml each) was intraperitoneally inoculated to ddY male mice (5 weeks age, weighing 24-27 g, 5 mice in each group), to infect the animals, by which systemic infectious model was prepared.
The mice were daily observed for one week, and from the survival number of mice after one week, the 50% effective dose (ED50) was calculated by Weil method. This test was repeated several times and the average of ED50 was calculated.

Work on `CC1COc2c(N3CCN(C)CC3)c(F)cc3c(=O)c(C(=O)O)cn1c23` (stereo not drawn) [Compound (X), 9-Fluoro-3-methyl-10-(4-methyl-1-piperazinyl)-7-oxo-2,3-dihydro-7H-pyrido[1,2,3-de][1,4]benzoxazine-6-carboxylic acid, reference compound] yielded an MIC [1] of 0.39 µg/mL (≈ 1.08 µM), an MIC [2] of 0.05 µg/mL (≈ 0.138 µM) and an MIC [3] of 0.1 µg/mL (≈ 0.277 µM). It also gave an MIC [4] of 0.39 µg/mL (≈ 1.08 µM), an MIC [5] of 0.39 µg/mL (≈ 1.08 µM) and an MIC [6] of 0.39 µg/mL (≈ 1.08 µM). For the same compound, the MIC [7] was 0.39 µg/mL (≈ 1.08 µM), the MIC [8] was 0.39 µg/mL (≈ 1.08 µM) and the MIC [9] was 0.39 µg/mL (≈ 1.08 µM). It also gave an MIC [10] of 1.56 µg/mL (≈ 4.32 µM), an MIC [11] of 3.13 µg/mL (≈ 8.66 µM) and an MIC [12] of 0.39 µg/mL (≈ 1.08 µM). For the same compound, the MIC [13] was 0.39 µg/mL (≈ 1.08 µM), the MIC [14] was 0.2 µg/mL (≈ 0.553 µM) and the MIC [15] was 0.1 µg/mL (≈ 0.277 µM). The MIC50 [16] was 3.13 µg/mL (≈ 8.66 µM), the MIC ([16]; 25 clinical strains E. faecalis) was 1.56 to 100 µg/mL (≈ 4.32 to 277 µM) and the MIC90 ([16]; 25 clinical strains E. faecalis, 90% of strains, read-out: MIC90) was 50 µg/mL (≈ 138 µM). For the same compound, the MIC90 [17] was 100 µg/mL (≈ 277 µM), the MIC50 ([17]; 25 clinical strains E. faecium, 50% of strains, read-out: MIC50) was 25 µg/mL (≈ 69.2 µM) and the MIC50 [18] was 1.56 µg/mL (≈ 4.32 µM). It also gave an MIC90 [18] of 25 µg/mL (≈ 69.2 µM), an MIC ([18]; 25 clinical strains S. aureus incl. 16 methicillin resistant) of 0.39 to 50 µg/mL (≈ 1.08 to 138 µM) and an MIC90 [19] of 25 µg/mL (≈ 69.2 µM). For the same compound, the MIC ([19]; 25 clinical strains S. epidermidis) was 0.2 to 50 µg/mL (≈ 0.553 to 138 µM), the MIC50 ([19]; 25 clinical strains S. epidermidis, 50% of strains, read-out: MIC50) was 0.78 µg/mL (≈ 2.16 µM) and the ED50 [20] was 11.4 mg/kg.
